Data as given in PubChem BioAssay (NCI).
“And” between values parts separate entries of the source, which are not always exact repeats. Identical values can stand only once.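 Values below derive from 48-hour exposures of cells grown in 96-well plates, with endpoints linearly interpolated between the two concentrations bracketing the appropriate inhibition level. The concentration for 50% growth inhibition is given as GI50. TGI marks complete inhibition of growth.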

How the values were obtained:
Experiment in all cases: NCI anticancer screen, dose series, 48 h
[1] = system: SF-268 CNS
[2] = system: HL-60(TB) leukemia
[3] = system: A549 NSCLC
[4] = system: NCI/ADR-RES ovarian
[5] = system: T-47D breast
[6] = system: OVCAR-3 ovarian
[7] = system: HCT-15 colon
[8] = system: MCF7 breast
[9] = system: HT29 colon
[10] = system: SF-539 CNS
[11] = system: NCI-H226 lung
[12] = system: RPMI-8226 leukemia
[13] = system: SW-620 colon
[14] = system: UO-31 renal
[15] = system: MDA-N
[16] = system: LXFL 529 NSCLC
[17] = system: KM12 colon
[18] = system: SNB-19 CNS

CCOC(=O)C(CC(C)C)NC(=O)C(Cc1ccc(N(CCCl)CCCl)cc1)NC(C)=O (configuration not stated)
TGI [1]: 22.6 µM and 20.5 µM
GI50 [2]: 2.07 µM
TGI [2]: 28.7 µM and 3.32 µM
TGI [3]: > 100 µM and 77.5 µM
TGI [4]: 68.5 µM
TGI [5]: 11.2 µM
GI50 [6]: 15.1 µM
TGI [6]: 29.2 µM and 13.7 µM
TGI [7]: 43.1 µM
TGI [8]: 25.9 µM
GI50 [9]: 14.9 µM
TGI [9]: 36.7 µM and 31.8 µM
TGI [10]: 10.6 µM and 9.63 µM
GI50 [11]: 12.2 µM
TGI [11]: 28.3 µM and 41.1 µM
GI50 [12]: 3.19 µM
TGI [12]: 14.8 µM and 15 µM
GI50 [13]: 11.3 µM
TGI [13]: 28.7 µM and 33.4 µM
GI50 [14]: 13.2 µM
TGI [14]: 73 µM and 20.4 µM
TGI [15]: 6.91 µM
TGI [16]: 26.5 µM
GI50 [17]: 17.8 µM
TGI [17]: 37.5 µM and 44.7 µM
GI50 [18]: 19.7 µM
TGI [18]: 81.8 µM and 42.7 µM
